Columns and labels:
KRas^G12D = biological target: T1, KRas^G12D (Homo sapiens, UniProt P01116, G12D); assay: KRas TR-FRET tracer displacement binding assay, G12D; conditions: 60-minute incubation
T1 construct: Biotinylated KRas (corresponding to amino acids 1-169, produced at Accelegan Inc.); biotin (biotinylated); purchased Accelegan Inc
Protocol: (§1) KRas^WT, KRas^G12A, KRas^G12C, KRas^G12D, KRas^G12R, KRas^G12S, KRas^G12V, KRas^G13D, or KRas^Q61H was used in the assay.
(§2) The ability of a compound to bind to KRas was measured using a TR-FRET displacement assay. Biotinylated KRas (corresponding to amino acids 1-169, produced at Accelegan Inc.) was incubated with custom made Cy5 labelled tracer, terbium streptavidin (Cisbio Inc.) and compound (1% DMSO final) in buffer (50 mM HEPES, pH 7.5, 5 mM MgCl2, 0.005% Tween-20 and 1 mM DTT). After a 60-minute incubation at room temperature, the reaction was measured using a BMG LABTECH CLARIO star Plus via TR-FRET.

KRas^G12S = biological target: T2, KRas^G12S (Homo sapiens, UniProt P01116, G12S); assay: KRas TR-FRET tracer displacement binding assay, G12S; conditions: 60-minute incubation
T2 construct: Biotinylated KRas (corresponding to amino acids 1-169, produced at Accelegan Inc.); biotin (biotinylated); purchased Accelegan Inc
T2 sequence (P01116 1-169 isoform P01116-2 G12S): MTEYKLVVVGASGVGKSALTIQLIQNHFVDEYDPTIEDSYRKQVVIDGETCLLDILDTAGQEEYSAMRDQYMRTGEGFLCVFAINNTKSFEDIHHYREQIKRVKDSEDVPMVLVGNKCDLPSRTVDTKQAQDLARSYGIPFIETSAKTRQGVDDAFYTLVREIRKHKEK
Protocol: as §1, §2

[1] = test system: KRas-mediated Phosphorylation of ERK in H358 cells; assay: Cisbio HTRF pERK assay, H358 cells; type: cell-based; conditions: Homo sapiens, NCI-H358, 3 h, H358 cells, 3 hrs compound; read-out: Inhibition (HTRF IC50 nM) of KRas-mediated Phosphorylation of ERK, H358
[2] = test system: KRas-mediated Phosphorylation of ERK in H727 cells; assay: Cisbio HTRF pERK assay, H727 cells; type: cell-based; conditions: Homo sapiens, NCI-H727, 3 h, 3 hrs compound, read-out: Inhibition (HTRF IC50 nM) of KRas-mediated Phosphorylation of ERK, H727
KRas^WT = biological target: T3, KRas^WT (Homo sapiens, UniProt P01116); assay: KRas TR-FRET tracer displacement binding assay, WT; conditions: 60-minute incubation
T3 construct: Biotinylated KRas (corresponding to amino acids 1-169, produced at Accelegan Inc.); biotin (biotinylated); purchased Accelegan Inc
T3 sequence (P01116 1-169 isoform P01116-2): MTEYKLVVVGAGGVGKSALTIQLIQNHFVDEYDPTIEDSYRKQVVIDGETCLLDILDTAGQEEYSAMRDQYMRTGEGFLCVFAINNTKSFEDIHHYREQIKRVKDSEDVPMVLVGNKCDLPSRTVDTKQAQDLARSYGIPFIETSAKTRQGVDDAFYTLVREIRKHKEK
Protocol: as §1, §2

[3] = test system: KRas-mediated Phosphorylation of ERK in A549 cells; assay: Cisbio HTRF pERK assay, A549 cells; type: cell-based; conditions: Homo sapiens, A549, 3 h, A549 cells, 3 hrs compound; read-out: Inhibition (HTRF IC50 nM) of KRas-mediated Phosphorylation of ERK, A549
[4] = test system: KRas-mediated Phosphorylation of ERK in H460 cells; assay: Cisbio HTRF pERK assay, H460 cells; type: cell-based; conditions: Homo sapiens, NCI-H460, 3 h, H460 cells, 3 hrs compound; read-out: Inhibition (HTRF IC50 nM) of KRas-mediated Phosphorylation of ERK, H460
KRas^G12V = biological target: T4, KRas^G12V (Homo sapiens, UniProt P01116, G12V); assay: KRas TR-FRET tracer displacement binding assay, G12V; conditions: 60-minute incubation
T4 construct: Biotinylated KRas (corresponding to amino acids 1-169, produced at Accelegan Inc.); biotin (biotinylated); purchased Accelegan Inc
T4 sequence (P01116 1-169 isoform P01116-2 G12V): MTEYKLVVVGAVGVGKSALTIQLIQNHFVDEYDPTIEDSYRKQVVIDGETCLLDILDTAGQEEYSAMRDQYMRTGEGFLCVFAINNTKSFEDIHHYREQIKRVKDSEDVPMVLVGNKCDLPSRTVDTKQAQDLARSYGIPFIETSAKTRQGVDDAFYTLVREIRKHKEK
Protocol: as §1, §2

KRas^G12C = biological target: T5, KRas^G12C (Homo sapiens, UniProt P01116, G12C); assay: KRas TR-FRET tracer displacement binding assay, G12C; conditions: 60-minute incubation
T5 construct: Biotinylated KRas (corresponding to amino acids 1-169, produced at Accelegan Inc.); biotin (biotinylated); purchased Accelegan Inc
T5 sequence (P01116 1-169 isoform P01116-2 G12C): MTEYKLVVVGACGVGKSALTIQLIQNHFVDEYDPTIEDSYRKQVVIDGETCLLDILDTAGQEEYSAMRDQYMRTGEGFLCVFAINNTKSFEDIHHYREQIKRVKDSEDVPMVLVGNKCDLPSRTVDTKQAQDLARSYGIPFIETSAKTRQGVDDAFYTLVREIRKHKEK
Protocol: as §1, §2

[5] = test system: KRas-mediated Phosphorylation of ERK in AsPC-1 cells; assay: Cisbio HTRF pERK assay, AsPC-1 cells; type: cell-based; conditions: Homo sapiens, ASPC1, 3 h, 3 hrs compound, read-out: Inhibition (HTRF IC50 nM) of KRas-mediated Phosphorylation of ERK, AsPC-1
[6] = test system: KRas-mediated Phosphorylation of ERK in HCT116 cells; assay: Cisbio HTRF pERK assay, HCT116 cells; type: cell-based; conditions: Homo sapiens, HCT-116, 3 h, HCT116 cells, 3 hrs compound; read-out: Inhibition (HTRF IC50 nM) of KRas-mediated Phosphorylation of ERK, HCT116
[7] = test system: KRas-mediated Phosphorylation of ERK in PSN1 cells; assay: Cisbio HTRF pERK assay, PSN1 cells; type: cell-based; conditions: Homo sapiens, PSN1, 3 h, 3 hour compound, read-out: Inhibition (HTRF IC50 nM) of KRas-mediated Phosphorylation of ERK, PSN1
Protocol: Inhibition of KRas Phosphorylation of ERK (HTRF) by Exemplary Compounds of Formula (I) • Cisbio HTRF Advanced pERK Assay Catalog #64AERPEH • Cell: MKN1, PSN1 • Procedure: • Day 1: Seed 6,000 cells/well −25 μl/well in 384-well white solid bottom plate; RPM1_10% FBS.

[8] = test system: KRas-mediated Phosphorylation of ERK in H2009 cells; assay: Cisbio HTRF pERK assay, H2009 cells; type: cell-based; conditions: Homo sapiens, NCI-H2009, H2009 cells; read-out: Inhibition (HTRF IC50 nM) of KRas-mediated Phosphorylation of ERK, H2009

T1 sequence (P01116 1-169 isoform P01116-2 G12D): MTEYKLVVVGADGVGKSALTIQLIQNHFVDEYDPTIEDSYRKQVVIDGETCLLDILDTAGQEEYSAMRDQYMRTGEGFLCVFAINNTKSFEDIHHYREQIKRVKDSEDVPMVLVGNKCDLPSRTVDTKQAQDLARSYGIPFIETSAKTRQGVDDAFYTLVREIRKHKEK

Row | SMILES | IC50 (KRas^G12D) | IC50 (KRas^G12S) | IC50 [1] | IC50 [2] | IC50 (KRas^WT) | IC50 [3] | IC50 [4] | IC50 (KRas^G12V) | IC50 (KRas^G12C) | IC50 [5] | IC50 [6] | IC50 [7] | IC50 [8]
1 | C[C@@]1(O)CCCN(c2nc(OC[C@@]34CCCN3C[C@H](F)C4)nc3c(F)c(-c4ccc(F)c5sc(N)c(C#N)c45)c(F)cc23)C1 [Example 198, 2-amino-4-(6,8-difluoro-2-(((2R,7aS)-2-fluorotetrahydro-1H-pyrrolizin-7a(5H)-yl)methoxy)-4-((R)-3-hydroxy-3-methylpiperidin-1-yl)quinazolin-7-yl)-7-fluorobenzo[b]thiophene-3-carbonitrile] | 9 nM | 11 nM | 125 nM | 717 nM | 7 nM | 326 nM | 170 nM | 13 nM | 12 nM | 253 nM | 275 nM |  | 
2 | N#Cc1c(N)sc2c(F)ccc(-c3c(Cl)cc4c(NCCS(N)(=O)=O)nc(OC[C@@]56CCCN5C[C@H](F)C6)nc4c3F)c12 [Example 201, 2-((7-(2-amino-3-cyano-7-fluorobenzo[b]thiophen-4-yl)-6-chloro-8-fluoro-2-(((2R,7aS)-2-fluorotetrahydro-1H-pyrrolizin-7a(5H)-yl)methoxy)quinazolin-4-yl)amino)ethane-1-sulfonamide] | 3 nM | 2 nM | 1780 nM | > 10000 nM | 3 nM | > 10000 nM | 5340 nM | 3 nM | 3 nM | 4690 nM | > 10000 nM | > 10000 nM | 
3 | CN(c1nc(OC[C@@]23CCCN2C[C@H](F)C3)nc2c(F)c(-c3ccc(F)c4sc(N)c(C#N)c34)c(Cl)cc12)[C@H]1C[C@@H]1F [Example 202, 2-amino-4-(6-chloro-8-fluoro-4-(((1S,2S)-2-fluorocyclopropyl)(methyl)amino)-2-(((2R,7aS)-2-fluorotetrahydro-1H-pyrrolizin-7a(5H)-yl)methoxy)quinazolin-7-yl)-7-fluorobenzo[b]thiophene-3-carbonitrile] |  |  | 63 nM | 104 nM |  | 200 nM | 145 nM |  |  | 200 nM | 498 nM | 3350 nM | 24 nM
4 | N#Cc1c(N)sc2c(F)ccc(-c3c(C4CC4)cc4c(N5C[C@H]6CC[C@@H](C5)N6)nc(OC[C@@]56CCCN5C[C@H](F)C6)nc4c3F)c12 [Example 208, 4-(4-((1R,5S)-3,8-diazabicyclo[3.2.1]octan-3-yl)-6-cyclopropyl-8-fluoro-2-(((2R,7aS)-2-fluorotetrahydro-1H-pyrrolizin-7a(5H)-yl)methoxy)quinazolin-7-yl)-2-amino-7-fluorobenzo[b]thiophene-3-carbonitrile] | < 2 nM | 4 nM | 167 nM | 3280 nM | 4 nM | 418 nM | 260 nM | 10.4 nM | 7 nM | 4 nM | 90 nM | 2390 nM | 

Continued, values first:

Row | IC50 (KRas^G12D) | IC50 (KRas^G12S) | IC50 [1] | IC50 [2] | IC50 (KRas^WT) | IC50 [3] | IC50 [4] | IC50 (KRas^G12V) | IC50 (KRas^G12C) | IC50 [5] | IC50 [6] | IC50 [7] | IC50 [8] | SMILES
5 | 3 nM | < 2 nM | 6 nM | 18 nM | 2 nM | 34 nM | 23 nM | 3 nM | 3 nM | 16 nM | 25 nM | 1180 nM |  | N#Cc1c(N)sc2c(F)ccc(-c3c(Cl)cc4c(N5CCCCC(F)C5)nc(OC[C@@]56CCCN5C[C@H](F)C6)nc4c3F)c12 (stereo partly drawn) [Example 204, 2-amino-4-(6-chloro-8-fluoro-4-(3-fluoroazepan-1-yl)-2-(((2R,7aS)-2-fluorotetrahydro-1H-pyrrolizin-7a(5H)-yl)methoxy)quinazolin-7-yl)-7-fluorobenzo[b]thiophene-3-carbonitrile]
6 | 2 nM | < 2 nM | 3 nM | 11 nM | < 2 nM | 22 nM | 34 nM | < 2 nM | < 2 nM | 3 nM | 42 nM | 811 nM |  | CN(C)C(=O)c1cc2n(n1)CCCN(c1nc(OC[C@@]34CCCN3C[C@H](F)C4)nc3c(F)c(-c4ccc(F)c5sc(N)c(C#N)c45)c(C4CC4)cc13)C2 [Example 207, 5-(7-(2-amino-3-cyano-7-fluorobenzo[b]thiophen-4-yl)-6-cyclopropyl-8-fluoro-2-(((2R,7aS)-2-fluorotetrahydro-1H-pyrrolizin-7a(5H)-yl)methoxy)quinazolin-4-yl)-N,N-dimethyl-5,6,7,8-tetrahydro-4H-pyrazolo[1,5-a][1,4]diazepine-2-carboxamide]
7 |  |  | 10 nM | 22 nM |  | 38 nM | 25 nM |  |  | 21 nM | 54 nM | 1190 nM | 5 nM | N#Cc1c(N)sc2c(F)ccc(-c3c(Cl)cc4c(N5CCCCCC5)nc(OC[C@@]56CCCN5C[C@H](F)C6)nc4c3F)c12 [Example 210, 2-amino-4-(4-(azepan-1-yl)-6-chloro-8-fluoro-2-(((2R,7aS)-2-fluorotetrahydro-1H-pyrrolizin-7a(5H)-yl)methoxy)quinazolin-7-yl)-7-fluorobenzo[b]thiophene-3-carbonitrile]
8 | 3 nM | < 2 nM | 3 nM | 12 nM | < 2 nM | 15 nM | 13 nM | 2 nM | < 2 nM | 22 nM | 18 nM | 1270 nM |  | N#Cc1c(N)sc2c(F)ccc(-c3c(Cl)cc4c(N5CCCOCC5)nc(OC[C@@]56CCCN5C[C@H](F)C6)nc4c3F)c12 [Example 211, 2-amino-4-(6-chloro-8-fluoro-2-(((2R,7aS)-2-fluorotetrahydro-1H-pyrrolizin-7a(5H)-yl)methoxy)-4-(1,4-oxazepan-4-yl)quinazolin-7-yl)-7-fluorobenzo[b]thiophene-3-carbonitrile]
9 |  |  | 57 nM | 429 nM |  | 720 nM | 365 nM |  |  | 1650 nM | 566 nM | 5110 nM | 80 nM | N#Cc1c(N)sc2c(F)ccc(-c3c(Cl)cc4c(NC5CS(=O)(=O)C5)nc(OC[C@@]56CCCN5C[C@H](F)C6)nc4c3F)c12 [Example 218, 2-amino-4-(6-chloro-4-((1,1-dioxidothietan-3-yl)amino)-8-fluoro-2-(((2R,7aS)-2-fluorotetrahydro-1H-pyrrolizin-7a(5H)-yl)methoxy)quinazolin-7-yl)-7-fluorobenzo[b]thiophene-3-carbonitrile]

— patent US20240025907A1, “QUINAZOLINE PAN-KRas INHIBITORS” (Mirati Therapeutics, Inc., priority 2022, published 2024)
